In US11236055B2 (Venenum Biodesign, LLC, priority 2016, dated 2022):

Columns and labels:
mouse TGR5 receptor = molecular target: T1, mouse TGR5 receptor (Mus musculus, UniProt Q80SS6); experiment: Mouse TGR5 cAMP production assay (luminescent, DiscoveRx cAMP XS+); format: cell-based; conditions: HEK293-EBNA cells overexpressing mouse TGR5, luminescent cAMP XS+; coded A-D; read-out: Mouse TGR5 Lum. cAMP Activity (EC50)
T1 construct: expressed in transfected cells; host or cells: HEK293-EBNA (293 c18, ATCC CRL10852), Hygromycin B selection
T1 sequence (Q80SS6 1-329): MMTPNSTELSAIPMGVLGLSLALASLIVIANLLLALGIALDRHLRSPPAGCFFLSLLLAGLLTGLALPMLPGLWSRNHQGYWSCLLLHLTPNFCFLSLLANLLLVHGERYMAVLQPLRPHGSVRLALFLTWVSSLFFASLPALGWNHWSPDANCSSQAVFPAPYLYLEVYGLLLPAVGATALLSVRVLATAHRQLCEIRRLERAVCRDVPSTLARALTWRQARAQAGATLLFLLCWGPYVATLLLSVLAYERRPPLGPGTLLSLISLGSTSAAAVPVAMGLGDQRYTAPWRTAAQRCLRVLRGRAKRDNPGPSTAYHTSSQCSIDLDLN
Source text: Mouse TGR5 cAMP Production Assay
We evaluated compounds of the present invention for their ability to induce cAMP production in HEK-EBNA cells overexpressing the mouse TGR5 receptor. Human embryonic kidney cells (HEK293-EBNA) stably expressing mouse TGR5 receptor were established using the following procedure. Specifically, a commercially-obtained gene encoding mouse TGR5 (accession number BC116914) from Thermo Scientific (Waltham, Mass.) was cloned into an episomal expression vector. The resulting expression plasmid was then transfected into 293 c18 (ATCC® CRL10852™) cells, which express the Epstein-Barr virus nuclear antigen EBNA1 and can support the replication of episomal vectors. Selection for the plasmid was maintained with Hygromycin B. Cells were cultured and maintained in DMEM (Sigma; cat #6429) supplemented with 10% Fetal Bovine Serum, 1% penicillin/streptomycin, 2 mM L-alanine L-glutamine (GlutaMax), and 250 μg/mL Hygromycin.
Two cAMP production assays were developed.
1. Luminescent cAMP Production Assay
In this first cAMP production assay, the cAMP production was measured using DiscoveRx's cAMP XS+ kit following the manufacturer's recommended protocol.
Briefly, HEK293-EBNA cells stably overexpressing mouse TGR5 were harvested using non-enzymatic cell dissociation buffer (Sigma-Aldrich, St. Louis, Mo.), spun down, then resuspended in serum-free DMEM with 500 μM IBMX at a density of 1.25×10^6 cells/mL. 500 μL of cAMP antibody solution was added to […] of cell suspension and incubated at room temperature for 20 min.
Test compounds were serially diluted (half-log dilutions) in DMSO and then further diluted 1:50 in PBS, 10 mM HEPES buffer. 2 μL of serially diluted compound was added to a 384-well low volume plate (Greiner cat #784075) and centrifuged briefly. 2 μL of the cell/cAMP antibody mixture was then added to each compound-containing well and allowed to incubate at room temperature for one (1) hour. Following incubation, the XS+ kits' ED/Lysis/CL Substrate Working Solution was prepared following the manufacturer's recommended protocol and 4 μL was added to each well of the plate. The plate was then incubated for one (1) hour at room temperature. Following incubation, 4 μL of (Enzyme Acceptor) EA reagent was added to the plate and allowed to incubate overnight at room temperature. Luminescent signal was then detected using the Viewlux instrument (Perkin-Elmer, Waltham, Mass.).
In Table 33, EC50 values for both human and mouse cells were determined according to the TGR5 cAMP assays described above.

human TGR5 receptor = molecular target: T2, human TGR5 receptor (Homo sapiens, UniProt Q8TDU6); experiment: Human TGR5 cAMP production assay; format: cell-based; conditions: human TGR5, luminescent cAMP assay; coded A-D; read-out: Human TGR5 Lum. cAMP Activity (EC50)
T2 construct: host or cells: CHO-K1 (hTGR5-CHO cells)
T2 sequence (Q8TDU6 1-330): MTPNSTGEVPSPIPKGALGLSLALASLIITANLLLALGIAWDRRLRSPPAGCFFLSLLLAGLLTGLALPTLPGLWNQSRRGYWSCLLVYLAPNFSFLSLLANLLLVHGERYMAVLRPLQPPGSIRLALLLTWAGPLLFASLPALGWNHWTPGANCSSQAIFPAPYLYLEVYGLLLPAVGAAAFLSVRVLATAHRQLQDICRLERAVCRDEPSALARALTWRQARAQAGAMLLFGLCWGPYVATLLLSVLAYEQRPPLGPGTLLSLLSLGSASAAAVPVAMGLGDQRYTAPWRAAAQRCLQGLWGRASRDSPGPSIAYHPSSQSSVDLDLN
Procedure, shortened: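 CHO-K1 cells stably expressing human TGR5, with IBMX and cAMP antibody, were exposed to half-log serially diluted compound for 1 h at room temperature. cAMP measured by enzyme-fragment complementation luminescence (XS+ kit) after overnight incubation; EC50 values reported.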

SMILES | EC50 (mouse TGR5 receptor) | EC50 (human TGR5 receptor)
Cc1noc(C)c1-c1cccc(CNS(=O)(=O)c2cccc(C(F)(F)F)c2)c1 [Compound 1, N-(3-(3,5-dimethylisoxazol-4-yl)benzyl)-3-(trifluoromethyl)benzenesulfonamide] | 1000 to 30000 nM | 1000 to 30000 nM
O=S(=O)(NCc1cccc(-c2ccncc2C(F)(F)F)c1)c1cccc(C(F)(F)F)c1 [Compound 1BH] | 1000 to 30000 nM | 1000 to 30000 nM
O=S(=O)(NCc1cccc(-c2ccncn2)c1)c1cccc(C(F)(F)F)c1 [Compound 1BK] | > 30000 nM | 1000 to 30000 nM
CCC(NS(=O)(=O)c1cccc(C(F)(F)F)c1)c1cccc(-c2ccncc2)c1 (stereo not drawn) [Compound 1BZ] | 1000 to 30000 nM | 100 to 999 nM
Cc1noc(C)c1-c1cccc(CNS(=O)(=O)c2ccc(Cl)cc2)c1 [Compound 1AB] | > 30000 nM | 1000 to 30000 nM
O=S(=O)(NCc1ccc(F)c(-c2ccncc2)c1)c1cccc(C(F)(F)F)c1 [Compound 1AS] | 1000 to 30000 nM | 100 to 999 nM
Cc1cnccc1-c1cccc(CNS(=O)(=O)c2cccc(C(F)(F)F)c2)c1 [Compound 1BF] | 100 to 999 nM | 100 to 999 nM
O=S(=O)(NCc1ccc(F)c(-c2ccncc2Cl)c1)c1cccc(C(F)(F)F)c1 [Compound 1AT] | 1000 to 30000 nM | 1000 to 30000 nM
Nc1cnccc1-c1cccc(CNS(=O)(=O)c2cccc(C(F)(F)F)c2)c1 [Compound 1BG] | 1000 to 30000 nM | 100 to 999 nM
Cc1cc(-c2cccc(C(C)(C)NS(=O)(=O)c3cccc(C(F)(F)F)c3)c2)ccn1 [Compound 1AK] | 1000 to 30000 nM | 100 to 999 nM
CC(C)(NS(=O)(=O)c1cccc(C(F)(F)F)c1)c1cccc(-c2ccncc2Cl)c1 [Compound 1AF] | 100 to 999 nM | 100 to 999 nM
Cc1cccc(S(=O)(=O)NCc2cccc(-c3c(C)noc3C)c2)c1 [Compound 2, N-(3-(3,5-dimethylisoxazol-4-yl)benzyl)-3-methylbenzenesulfonamide] | 1000 to 30000 nM | 1000 to 30000 nM
Cc1noc(C)c1-c1cccc(C(C)(C)NS(=O)(=O)c2cccc(C(F)(F)F)c2)c1 [Compound 1AC] | 1000 to 30000 nM | 1000 to 30000 nM
C[C@H](NS(=O)(=O)c1cccc(C(F)(F)F)c1)c1cccc(-c2ccncc2F)c1 [Compound 1AY] | 1000 to 30000 nM | 100 to 999 nM
O=S(=O)(NCc1cc(Cl)cc(-c2ccncc2)c1)c1cccc(C(F)(F)F)c1 [Compound 1BV] | > 30000 nM | 1000 to 30000 nM
O=S(=O)(NCc1ccc(Cl)c(-c2ccncc2)c1)c1cccc(C(F)(F)F)c1 [Compound 1BU] | > 30000 nM | 1000 to 30000 nM
CC(C)(NS(=O)(=O)c1cccc(C(F)(F)F)c1)c1cccc(-c2ccncc2F)c1 [Compound 1AE] | 1000 to 30000 nM | < 100 nM
Cc1cc(-c2cccc(CNS(=O)(=O)c3cccc(C(F)(F)F)c3)c2)ncn1 [Compound 1BI] | > 30000 nM | 1000 to 30000 nM
O=S(=O)(NCc1cccc(-c2ccncc2Cl)c1)c1cccc(C(F)(F)F)c1 [Compound 1AQ] | 1000 to 30000 nM | 100 to 999 nM
CC(C)(NS(=O)(=O)c1cccc(C(F)(F)F)c1)c1cccc(-c2ccncc2O)c1 [Compound 1AN] | 1000 to 30000 nM | 100 to 999 nM
O=S(=O)(NCc1cc(-c2ccncc2)ccc1F)c1cccc(C(F)(F)F)c1 [Compound 1AU] | 1000 to 30000 nM | 1000 to 30000 nM
Cc1ccc(C(C)(C)NS(=O)(=O)c2cccc(C(F)(F)F)c2)cc1-c1ccncc1 [Compound 1BW] | > 30000 nM | 1000 to 30000 nM
CC(C)(NS(=O)(=O)c1ccccc1C(F)(F)F)c1cccc(-c2ccncc2O)c1 [Compound 1BM] | 100 to 999 nM | < 100 nM

Results, then the molecule that gave them:

EC50 (mouse TGR5 receptor) | EC50 (human TGR5 receptor) | SMILES
1000 to 30000 nM | 1000 to 30000 nM | COc1cccc(S(=O)(=O)NCc2cccc(-c3c(C)noc3C)c2)c1 [Compound 2AB]
100 to 999 nM | < 100 nM | Cc1cnccc1-c1cccc([C@H](C)NS(=O)(=O)c2cccc(C(F)(F)F)c2)c1 [Compound 5AG, (S)-N-(1-(3-(3-methylpyridin-4-yl)phenyl)ethyl)-3-(trifluoromethyl)benzenesulfonamide]
100 to 999 nM | 100 to 999 nM | COc1cnccc1-c1cccc(C(C)(C)NS(=O)(=O)c2cccc(Cl)c2)c1 [Compound 2AY]
1000 to 30000 nM | 1000 to 30000 nM | Cc1cncc(C)c1-c1cccc(C(C)(C)NS(=O)(=O)c2cccc(C(F)(F)F)c2)c1 [Compound 5AD, N-(2-(3-(3,5-dimethylpyridin-4-yl)phenyl)propan-2-yl)-3-(trifluoromethyl)benzenesulfonamide]
100 to 999 nM | 100 to 999 nM | COc1cnccc1-c1cccc(C(C)(C)NS(=O)(=O)c2ccccc2Cl)c1 [Compound 2AX]
> 30000 nM | 1000 to 30000 nM | COc1cccc(S(=O)(=O)NCc2cccc(-c3ccncc3)c2)c1 [Compound 2AL]
100 to 999 nM | < 100 nM | CCc1cnccc1-c1cccc(C(C)(C)NS(=O)(=O)c2cccc(C(F)(F)F)c2)c1 [Compound 5AB, N-(2-(3-(3-ethylpyridin-4-yl)phenyl)propan-2-yl)-3-(trifluoromethyl)benzenesulfonamide]
> 30000 nM | 1000 to 30000 nM | Cc1noc(C)c1-c1cccc(CNS(=O)(=O)c2ccc(Cl)c(C(F)(F)F)c2)c1 [Compound 2AD]
100 to 999 nM | < 100 nM | C[C@H](NS(=O)(=O)c1ccccc1C(F)(F)F)c1cccc(-c2ccncc2Cl)c1 [Compound 2BT]
> 30000 nM | 1000 to 30000 nM | Cc1noc(C)c1-c1cccc(CNS(=O)(=O)c2cc(C(F)(F)F)ccc2F)c1 [Compound 2AF]
> 30000 nM | 1000 to 30000 nM | Cc1noc(C)c1-c1cccc(CNS(=O)(=O)c2cc(F)cc(C(F)(F)F)c2)c1 [Compound 2AG]
1000 to 30000 nM | 1000 to 30000 nM | O=S(=O)(NCc1cccc(-c2ccncc2)c1)c1ccccc1C(F)(F)F [Compound 2AM]
> 30000 nM | 1000 to 30000 nM | O=S(=O)(NCc1cccc(-c2ccncc2)c1)c1cccc(F)c1 [Compound 2AK]
> 30000 nM | 1000 to 30000 nM | O=S(=O)(NCc1cccc(-c2ccncc2)c1)c1ccccc1Cl [Compound 2AR]
100 to 999 nM | < 100 nM | Cc1cnccc1-c1cccc(C(C)(C)NS(=O)(=O)c2ccccc2C(F)(F)F)c1 [Compound 5AI, N-(2-(3-(3-methylpyridin-4-yl)phenyl)propan-2-yl)-2-(trifluoromethyl)benzenesulfonamide]
100 to 999 nM | < 100 nM | COc1cnccc1-c1cccc([C@H](C)NS(=O)(=O)c2ccccc2[N+](=O)[O-])c1 [Compound 2BP]
> 30000 nM | 100 to 999 nM | O=S(=O)(NCc1cccc(-c2ccncc2)c1)c1cccc(Br)c1 [Compound 2AQ]
1000 to 30000 nM | 1000 to 30000 nM | Cc1cccc(S(=O)(=O)NCc2cccc(-c3ccncc3)c2)c1 [Compound 2AI]
> 30000 nM | 1000 to 30000 nM | Cc1noc(C)c1-c1cccc(CNS(=O)(=O)c2ccc(F)c(C(F)(F)F)c2)c1 [Compound 2AE]
